Assay results reported in patent publication US8187822B2, “Methods to identify modulators” (Givaudan S.A., priority 2007, dated 2012).

Target: T1, TAS2R1 (Homo sapiens, UniProt Q9NYW7)
T1 construct: The full length gene of human TAS2R44 was amplified by polymerase chain reaction (PCR) using gene-specific primers that span the entire coding region; RSS tag (first 45 amino acids of rat somatostatin receptor subtype 3) (N); expressed in transfected cells
T1 sequence (Q9NYW7 1-299): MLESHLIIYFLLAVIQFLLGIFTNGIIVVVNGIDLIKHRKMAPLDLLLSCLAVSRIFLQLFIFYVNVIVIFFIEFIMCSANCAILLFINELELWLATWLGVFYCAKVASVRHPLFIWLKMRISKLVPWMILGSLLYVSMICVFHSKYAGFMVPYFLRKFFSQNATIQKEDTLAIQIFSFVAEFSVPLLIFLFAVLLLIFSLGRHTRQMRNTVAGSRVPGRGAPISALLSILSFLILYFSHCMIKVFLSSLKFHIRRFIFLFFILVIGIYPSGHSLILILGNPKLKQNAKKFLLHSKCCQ
Experiment: Fluo-4 calcium assay, HEK293T cells stably expressing Gα16-gustducin44 and TAS2R1
Format: cell-based
Protocol: Cell lines that stably expresses a SABR (TAS2R44, TAS2R1, TAS2R10) was generated by transfecting pcDNA3.1Zeo-SABR into HEK293T/Gα16-gustducin 44 cells (both formed as described in example 1). The host cell line HEK-293T is commercially available from the American Tissue Culture Collection (ATCC), ATCC®# CRL-11268.
TAS2R1 expressing cells were identified by their response to 0.5 mM chloramphenicol (a known TAS2R1 agonist as described in WO 2006/053771) in addition to sucralose, which was determined via automated fluorimetric imaging on the FLIPR-Tetra instrumentation (Molecular Devices) using the methods described in Example 3. One clone was selected resulting in the HEK293T/Gα16-gustducin 44/TAS2R1 cell line.
At day 0, the HEK293T cell line expressing Gα16-gustducin44 and a TAS2R bitter taste receptor formed as described in examples 2b or 2c was seeded in antibiotic-free growth medium (standard DMEM with 10% (v/v) heat-inactivated fetal bovine serum, 2 mM L-glutamine[…]) into black wall/clear bottom 96-well plates, coated with poly(ethylenimine) (0.005% v/v) at a concentration of 15,000 cells per well and incubated for 48 hours in humidified atmosphere (37° C., 5% CO2).
At the time of the assay, the growth medium was discarded and the cells were in humidified atmosphere (37° C., 5% CO2) for 1 hour with 50 μl of loading buffer consisting of 1.5 μM Fluo-4 AM and […] probenicid (Sigma-Aldrich, St. Louis, Mo., US) in DMEM.
Afterwards, the 96-well plate was washed 5 times with 100 μl of assay buffer (130 mM NaCl, 5 mM KCl, 10 mM HEPES, 2 mM CaCl2, and 5 mM dextrose, pH 7.4) per well, using an automated plate washer (BioTek). The plate was further incubated for 30 minutes at room temperature in the dark to allow for complete de-esterification of the Fluo-4. Afterwards the plate was washed 5 times with 100 μl of assay buffer per well, and reconstituted with 100 μl of assay buffer per well.
For assay reading, the plate was placed in a Fluorometric Imaging Plate Reader (FLIPR) (FLIPR-TETRA™, Molecular Devices, Sunnyvale, Calif., US), and receptor activation was initiated by addition of 100 μl of a twofold concentrated agonist stock solution (to give the desired agonist end concentration when added to the 100 microliter assay buffer volume), which was prepared in assay buffer.
Fluorescence was continuously monitored for 20 seconds to give a signal baseline (averaged to give F0) prior to agonist addition and for 120 seconds after agonist addition. The change in signal divided by F0 gives ΔF/F0 indicated in the table, with ΔF being the maximum signal occurring within the 120 seconds minus the minimum signal (occurring within the 120 seconds after agonist addition.
All data was collected from at least two independent experiments each carried out in triplicate.
The obtained calcium signals were corrected for the response of cells expressing only the G Protein α subunit (Gα16-gustducin44) and normalized to the fluorescence of cells prior to the stimulus using ΔF/F0 (Fmax−Fmin/F0).
The intracellular calcium response following addition of sucralose was determined in HEK293T cell line stably expressing Gα16-gustducin44 and TAS2R1 formed as described in example 2c.

TAS2R1 ΔF/F0 (sucralose 0.3906 mM): 0.052
TAS2R1 ΔF/F0 (sucralose 0.7813 mM): 0.050
TAS2R1 ΔF/F0 (sucralose 1.5625 mM): 0.047
TAS2R1 ΔF/F0 (sucralose 3.1250 mM): 0.059
TAS2R1 ΔF/F0 (sucralose 6.2500 mM): 0.061
TAS2R1 ΔF/F0 (sucralose 12.5000 mM): 0.072
TAS2R1 ΔF/F0 (sucralose 25.0000 mM): 0.104
TAS2R1 ΔF/F0 (sucralose 50.0000 mM): 0.197
TAS2R1 ΔF/F0 (sucralose 100.0000 mM): 0.518
SMILES: OC[C@H]1O[C@H](O[C@]2(CCl)O[C@H](CCl)[C@@H](O)[C@@H]2O)[C@H](O)[C@@H](O)[C@H]1Cl [Sucralose, sucralose]
calcium signaling in TAS2R1 cells, in words: significant concentration-dependent increase in calcium signaling
